Measurements: the supplement of paper PMC10307832

Key:
Experiment in all cases: relative viability (nuclei count vs DMSO), 5 days (fraction); higher = more cells survive
NCI-H1993 = tested on: NCI-H1993
In short: (§1)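 The day after seeding in 1536-well plates, lung cancer cell lines were treated by pin tool with a single drug, or with a fixed anchor-drug dose together with five library-drug doses (not always all listed) in √10 steps. After 5 days, a combined fix-and-stain solution (final 0.05% Triton X-100, 1% formaldehyde, 1 ug/ml Hoechst) was added. Nuclei counted on 4× images gave relative viability as treated counts over vehicle counts, reported as the median of duplicate plates.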

NCI-H1395 = tested on: NCI-H1395
In short: as §1

LU99A = tested on: LU99A
In short: as §1

COR-L 105 = tested on: COR-L 105
In short: as §1

PC-3 [JPC-3] = tested on: PC-3 [JPC-3]
In short: as §1

LC-2-ad = tested on: LC-2-ad
In short: as §1

NCI-H1944 = tested on: NCI-H1944
In short: as §1

NCI-H3122 = tested on: NCI-H3122
In short: as §1

NCI-H1734 = tested on: NCI-H1734
In short: as §1

HCC-15 = tested on: HCC-15
In short: as §1

HARA = tested on: HARA
In short: as §1

PC-14 = tested on: PC-14
In short: as §1

SK-LU-1 = tested on: SK-LU-1
In short: as §1

NCI-H838 = tested on: NCI-H838
In short: as §1

HCC-366 = tested on: HCC-366
In short: as §1

NCI-H1666 = tested on: NCI-H1666
In short: as §1

NCI-H1975 = tested on: NCI-H1975
In short: as §1

H3255 = tested on: H3255
In short: as §1

NCI-H647 = tested on: NCI-H647
In short: as §1

NCI-H522 = tested on: NCI-H522
In short: as §1

COCC1(CO)C(=O)C2CCN1CC2 (stereo not drawn) [PRIMA-1MET] + Nc1ncn([C@H]2C[C@H](O)[C@@H](CO)O2)c(=O)n1 [Decitabine] (partner 2 µM)
relative viability (NCI-H1993; first compound 0.2 µM): 0.57 | relative viability (NCI-H1993; first compound 2 µM): 0.57 | relative viability (NCI-H1993; first compound 6.325 µM): 0.731 | relative viability (NCI-H1993; first compound 20 µM): 0.564 | relative viability (NCI-H1395; first compound 0.2 µM): 0.712 | relative viability (NCI-H1395; first compound 2 µM): 0.708 | relative viability (NCI-H1395; first compound 6.325 µM): 0.838 | relative viability (NCI-H1395; first compound 20 µM): 0.67 | relative viability (LU99A; first compound 0.2 µM): 0.776 | relative viability (LU99A; first compound 0.6325 µM): 0.722 | relative viability (LU99A; first compound 2 µM): 0.888 | relative viability (LU99A; first compound 6.325 µM): 0.674 | relative viability (LU99A; first compound 20 µM): 0.51 | relative viability (COR-L 105; first compound 0.2 µM): 0.695 | relative viability (COR-L 105; first compound 0.6325 µM): 0.619 | relative viability (COR-L 105; first compound 2 µM): 0.551 | relative viability (COR-L 105; first compound 6.325 µM): 0.597 | relative viability (COR-L 105; first compound 20 µM): 0.179 | relative viability (PC-3 [JPC-3]; first compound 0.2 µM): 0.822 | relative viability (PC-3 [JPC-3]; first compound 0.6325 µM): 0.712 | relative viability (PC-3 [JPC-3]; first compound 2 µM): 0.841 | relative viability (PC-3 [JPC-3]; first compound 6.325 µM): 0.84 | relative viability (PC-3 [JPC-3]; first compound 20 µM): 0.802 | relative viability (LC-2-ad; first compound 0.2 µM): 0.902 | relative viability (LC-2-ad; first compound 0.6325 µM): 0.607 | relative viability (LC-2-ad; first compound 2 µM): 0.773 | relative viability (LC-2-ad; first compound 6.325 µM): 0.776 | relative viability (LC-2-ad; first compound 20 µM): 0.776 | relative viability (NCI-H1944; first compound 0.2 µM): 0.436 | relative viability (NCI-H1944; first compound 0.6325 µM): 0.35 | relative viability (NCI-H1944; first compound 2 µM): 0.408 | relative viability (NCI-H1944; first compound 6.325 µM): 0.431 | relative viability (NCI-H1944; first compound 20 µM): 0.446 | relative viability (NCI-H3122; first compound 0.2 µM): 0.336 | relative viability (NCI-H3122; first compound 0.6325 µM): 0.288 | relative viability (NCI-H3122; first compound 2 µM): 0.425 | relative viability (NCI-H3122; first compound 6.325 µM): 0.367 | relative viability (NCI-H3122; first compound 20 µM): 0.425 | relative viability (NCI-H1734; first compound 0.2 µM): 0.481 | relative viability (NCI-H1734; first compound 0.6325 µM): 0.289 | relative viability (NCI-H1734; first compound 2 µM): 0.456 | relative viability (NCI-H1734; first compound 6.325 µM): 0.474 | relative viability (NCI-H1734; first compound 20 µM): 0.0575 | relative viability (HCC-15; first compound 0.2 µM): 0.663 | relative viability (HCC-15; first compound 0.6325 µM): 0.373 | relative viability (HCC-15; first compound 2 µM): 0.647 | relative viability (HCC-15; first compound 6.325 µM): 0.585 | relative viability (HCC-15; first compound 20 µM): 0.563 | relative viability (HARA; first compound 0.2 µM): 0.478 | relative viability (HARA; first compound 0.6325 µM): 0.354 | relative viability (HARA; first compound 2 µM): 0.622 | relative viability (HARA; first compound 6.325 µM): 0.607 | relative viability (HARA; first compound 20 µM): 0.607 | relative viability (PC-14; first compound 0.2 µM): 0.18 | relative viability (PC-14; first compound 0.6325 µM): 0.109 | relative viability (PC-14; first compound 2 µM): 0.211 | relative viability (PC-14; first compound 6.325 µM): 0.21 | relative viability (PC-14; first compound 20 µM): 0.0433 | relative viability (SK-LU-1; first compound 0.2 µM): 0.523 | relative viability (SK-LU-1; first compound 0.6325 µM): 0.513 | relative viability (SK-LU-1; first compound 2 µM): 0.503 | relative viability (SK-LU-1; first compound 6.325 µM): 0.707 | relative viability (SK-LU-1; first compound 20 µM): 0.593 | relative viability (NCI-H838; first compound 0.2 µM): 0.435 | relative viability (NCI-H838; first compound 0.6325 µM): 0.312 | relative viability (NCI-H838; first compound 2 µM): 0.474 | relative viability (NCI-H838; first compound 6.325 µM): 0.472 | relative viability (NCI-H838; first compound 20 µM): 0.453 | relative viability (HCC-366; first compound 0.2 µM): 0.325 | relative viability (HCC-366; first compound 0.6325 µM): 0.12 | relative viability (HCC-366; first compound 2 µM): 0.294 | relative viability (HCC-366; first compound 6.325 µM): 0.423 | relative viability (HCC-366; first compound 20 µM): 0.0554 | relative viability (NCI-H1666; first compound 0.2 µM): 0.637 | relative viability (NCI-H1666; first compound 0.6325 µM): 0.492 | relative viability (NCI-H1666; first compound 2 µM): 0.645 | relative viability (NCI-H1666; first compound 6.325 µM): 0.724 | relative viability (NCI-H1666; first compound 20 µM): 0.756 | relative viability (NCI-H1975; first compound 0.2 µM): 0.389 | relative viability (NCI-H1975; first compound 0.6325 µM): 0.329 | relative viability (NCI-H1975; first compound 2 µM): 0.343 | relative viability (NCI-H1975; first compound 6.325 µM): 0.431 | relative viability (NCI-H1975; first compound 20 µM): 0.371 | relative viability (H3255; first compound 0.2 µM): 0.553 | relative viability (H3255; first compound 0.6325 µM): 0.54 | relative viability (H3255; first compound 2 µM): 0.524 | relative viability (H3255; first compound 6.325 µM): 0.695 | relative viability (H3255; first compound 20 µM): 0.522 | relative viability (NCI-H647; first compound 0.2 µM): 0.403 | relative viability (NCI-H647; first compound 0.6325 µM): 0.236 | relative viability (NCI-H647; first compound 2 µM): 0.353 | relative viability (NCI-H647; first compound 6.325 µM): 0.333 | relative viability (NCI-H647; first compound 20 µM): 0.39 | relative viability (NCI-H522; first compound 0.2 µM): 0.648 | relative viability (NCI-H522; first compound 0.6325 µM): 0.592 | relative viability (NCI-H522; first compound 2 µM): 0.573 | relative viability (NCI-H522; first compound 6.325 µM): 0.672 | relative viability (NCI-H522; first compound 20 µM): 0.178
